Results reported in patent US20230295152A1 (SENDA BIOSCIENCES, INC., priority 2019, published 2023).
Where two headings read alike, the source gives them in different places.

Columns and labels:
[1] = Liver Microsome Stability Assay, human; type: in vitro ADME; conditions: human liver microsomes
Method: Two separate experiments were performed as follows.
With Cofactors (NADPH): 25 μL of 10 mM NADPH was added to the incubations. The final concentrations of microsomes and NADPH were 0.5 mg/mL and 1 mM, respectively. The final concentration of microsomes was 0.5 mg/mL. The mixture was pre-warmed at 37° C. for 10 minutes. The reaction was started with the addition of 2.5 μL of 100 μM control compound or test compound solutions. Verapamil was used as positive control in this study. The final concentration of test compound or control compound was 1 μM. The incubation solution was incubated in water batch at 37° C. Aliquots of 25 μL were taken from the reaction solution at 0.5, 5, 15, 30 and 60 minutes. The reaction was stopped by the addition of 5 volumes of cold acetonitrile with IS (200 nM caffeine and 100 nM tolbutamide). Samples were centrifuged at 3, 220 g for 40 minutes. Aliquot of 100 μL of the supernatant was mixed with 100 μL of ultra-pure H2O and then used for LC-MS/MS analysis.
Data Analysis: All calculations were carried out using Microsoft Excel. Peak areas were determined from extracted ion chromatograms. The slope value, k, was determined by linear regression of the natural logarithm of the remaining percentage of the parent drug vs. incubation time curve.
(§1) The in vitro half-life (in vitro t1/2) was determined from the slope value:
Conversion of the in vitro t1/2 (min) into the in vitro intrinsic clearance (in vitro CLint, in μL/min/mg protein) was done using the following equation (mean of duplicate determinations): […]
The calculations of Scaled-up CLint(mL/min/kg), Predicted CLH (mL/min/kg) and EH were done using the following equation:
Scaled-up CLint=(0.693/t1/2)×(1/(microsomal protein concentration(0.5 mg/mL)))×Scaling Factors;Predicted CLH=(QH×Scaled-up CLint×fub)/(QH+Scaled-up CLint×fub);EH=Predicted CLH/QH
where QH is the hepatic blood flow (mL/min/kg) (Table 32), • fub is the fraction of unbound drug in plasma which is assumed to be 1.
“+++” indicates a Clint value less than 10 mL/min/Kg, […] indicates a Clint between 10 and 20 mL/min/Kg, and “+” indicates a Clint above 20 mL/min/Kg.

AHR = target: T1, AHR (Homo sapiens, UniProt P35869); assay: DRE-Luciferase Reporter Assay, HepG2 AhR-Lucia reporter cells; type: cell-based; conditions: with AHR activating ligand at EC50, read-out: HepG2-Luc IC50
T1 construct: other cell line with a DRE-luciferase reporter stably transfected; endogenous in cells; host or cells: HepG2 AhR-Lucia reporter cells
T1 sequence (P35869 11-848): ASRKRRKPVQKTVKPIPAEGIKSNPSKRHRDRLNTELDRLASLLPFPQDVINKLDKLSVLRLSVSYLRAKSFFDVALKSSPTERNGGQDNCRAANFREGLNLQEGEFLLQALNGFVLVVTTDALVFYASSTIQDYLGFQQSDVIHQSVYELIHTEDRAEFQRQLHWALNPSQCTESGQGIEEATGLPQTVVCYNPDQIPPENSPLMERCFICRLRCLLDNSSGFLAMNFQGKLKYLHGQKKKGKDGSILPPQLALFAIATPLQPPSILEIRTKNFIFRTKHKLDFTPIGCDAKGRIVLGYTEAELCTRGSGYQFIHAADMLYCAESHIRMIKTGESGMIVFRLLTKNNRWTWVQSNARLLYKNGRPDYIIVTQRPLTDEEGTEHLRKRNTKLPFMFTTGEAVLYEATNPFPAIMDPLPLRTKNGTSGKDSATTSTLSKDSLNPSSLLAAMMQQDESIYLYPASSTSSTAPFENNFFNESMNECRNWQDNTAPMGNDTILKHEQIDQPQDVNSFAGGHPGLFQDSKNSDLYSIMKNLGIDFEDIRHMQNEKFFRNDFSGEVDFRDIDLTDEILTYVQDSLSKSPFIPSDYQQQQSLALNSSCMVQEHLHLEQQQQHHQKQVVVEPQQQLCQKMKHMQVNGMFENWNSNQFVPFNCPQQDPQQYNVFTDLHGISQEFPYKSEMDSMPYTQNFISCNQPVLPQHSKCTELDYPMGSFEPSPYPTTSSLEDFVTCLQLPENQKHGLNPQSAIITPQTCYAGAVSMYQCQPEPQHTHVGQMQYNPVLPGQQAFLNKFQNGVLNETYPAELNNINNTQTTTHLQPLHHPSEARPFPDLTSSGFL
Outline: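 Antagonism read as inhibition of agonist-driven secreted luciferase in stably DRE-reporter-transfected cells such as HepG2 AhR-Lucia. Agonist ligand at EC50 concentration added 1 hr post-plating alongside antagonist (log series, top 100 uM); supernatant read at 24 or 48 h, IC50 derived against agonist-only maximum.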

[2] = Solubility Determination Assay in PBS pH 1.6 and pH 7.4; type: physicochemical; conditions: PBS buffer, aqueous buffer, kinetic from dmso stock
Method: The stock solutions of test compounds and control compound progesterone were prepared in DMSO at the concentrations of 10 mM. 15 μL of stock solution (10 mM) of each sample was placed in order into their proper 96-well rack. 485 μL of PBS pH 1.6 and pH 7.4 were added into each vial of the cap-less Solubility Sample plate. The assay was performed in singlet. One stir stick was added to each vial and then the vial was sealed using a molded PTFE/Silicone plug. […] After completion of the 2 hours, plugs were removed and the stir sticks were removed using a big magnet. The samples from the Solubility Sample plate were transferred into the filter plate. Using the Vacuum Manifold, all the samples were filtered. An aliquot of 5 μL was taken from the filtrate followed by addition of 495 μL of a mixture of H2O and acetonitrile containing internal standard (1:1). A certain proportion of ultrapure water was used to dilute the diluent according to the peak shape. The dilution factor was changed according to the solubility values and the LC-MS signal response.
From the 10 mM DMSO STD plate, 6 μL was transferred into the remaining empty plate, and then 194 μL of DMSO were added to that plate to have a STD concentration of 300 μM. From the 300 μM DMSO STD plate, 5 μL were transferred into the remaining empty plate, and then 495 μL of a mixture of H2O and acetonitrile containing internal standard (1:1) were added to that plate to have a final STD concentration of 3 μM. A certain proportion of ultrapure water was used to dilute the diluent according to the peak shape. The concentrations of the standard samples were changed according to the LC-MS signal response.
The plate was placed into the well plate autosampler. The samples were evaluated by LC-MS/MS analysis.
All calculations were carried out using Microsoft Excel.
The filtrate was analyzed and quantified against a standard of known concentration using LC coupled with mass spectral peak identification and quantitation. Solubility values of the test compound and control compound were calculated as follows: […]
Any value of the compounds that was not within the specified limits was rejected and the experiment was repeated.
“+++” indicates a solubility value equal to or greater than 1 μM, “++” indicates a solubility value between 0.1 and 1 μM, and “+” indicates a solubility value less than 0.1 μM.

[3] = Hepatocyte Stability Assay, human; type: in vitro ADME; conditions: cryopreserved hepatocytes in suspension; human hepatocytes; read-out: Human hepatocyte clearance
Method: • Preparation of working solutions: 10 mM stock solutions of test compound and positive control were prepared in DMSO. In separate conical tubes, the 10 mM solution of test compound and the positive control were diluted to 100 μM by combining 198 μL of 50% acetonitrile/50% water and 2 μL of 10 mM stock.
Preparation of Hepatocytes: Incubation medium (William's E Medium supplemented with GlutaMAX) and hepatocyte thawing medium were placed in a 37° C. water bath and allowed warming for at least 15 minutes prior to use. A vial of cryopreserved hepatocytes was transferred from storage, ensuring that vials remained at cryogenic temperatures until thawing process ensued. Cells were thawed by placing the vial in a 37° C. water bath and gently shaking the vials for 2 minutes. After thawing was completed, vial was sprayed with 70% ethanol and transferred to a biosafety cabinet. Wide-bore pipette tip were used to transfer hepatocytes into 50 mL conical tube containing thawing medium. The 50 mL conical tube were placed into a centrifuge and spun at 100 g for 10 minutes. Upon completion of spin, thawing medium was aspirated and resuspended hepatocytes in enough incubation medium to yield ˜1.5×10^6 cells/mL. Using an AO/PI Staining, cells were counted and the viable cell density was determined. Cells with poor viability (<75% viability) were determined to be not acceptable for use. Cells were diluted with incubation medium to a working cell density of 0.5×10^6 viable cells/mL.
Procedure for Stability Determination: 198 μL of hepatocytes were pipetted into each wells of a 96-well non-coated plate. The plate was placed in the incubator to allow the hepatocytes to warm for 10 minutes. 2 μL of the 100 μM test compound or positive control solutions were pipetted into respective wells of the 96-well non-coated plate to start the reaction. The plate was returned to the incubator for the designed time points. Well contents was transferred in 25 μL aliquots at time points of 0, 15, 30, 60, 90 and 120 minutes. The aliquots were then mixed with 6 volumes (150 μL) of acetonitrile containing internal standard, IS (100 nM alprazolam, 200 nM caffeine and 100 nM tolbutamide) to terminate the reaction. The mixture was vortex for 5 minutes. Samples were centrifuged for 45 minutes at 3,220 g. An aliquot of 100 μL of the supernatant was diluted by 100 μL ultra-pure water, and the mixture was used for LC/MS/MS analysis. All incubations were performed in duplicate.
Data Analysis: All calculations were carried out using Microsoft Excel. Peak areas were determined from extracted ion chromatograms. In vitro half-life (t1/2) of parent compound was determined by regression analysis of the percent parent disappearance vs. time curve.
as §1
Conversion of the in vitro t1/2 (in min) into the in vitro intrinsic clearance (in vitro CLint, in μL/min/1×10^6 cells) was done using the following equation (mean of duplicate determinations):
V=incubation volume(0.2 mL);
N=number of hepatocytes per well(0.1×10^6 cells).
“+++” indicates a CLint value less than 20 mL/min/Kg, “++” indicates a CLint between 20 and 50 mL/min/Kg, and “+” indicates an CLint above 50 mL/min/Kg.

[4] = PBS pH 1.6, 25° C., read-out: Aq. Solubility at pH = 1.6
[5] = PBS pH 7.4, 25° C., read-out: Aq. Solubility at pH = 7.4

Row | Compound | Human liver microsome clearance [1] | IC50 (AHR) | solubility at 2 h [2, 4] | solubility at 2 h [2, 5] | CLint scaled at 1 μM [3]
1 | C[C@@H](CO)n1cnc2c(-c3cccc(F)c3)nc(-c3ccc(OC(F)(F)F)cc3)cc2c1=O [Compound 49, 8-(3-fluorophenyl)-3-[(1S)-2-hydroxy-1-methyl-ethyl]-6-[4-(trifluoromethoxy)phenyl]pyrido[3,4-d]pyrimidin-4-one] | +++ (“+++” indicates a Clint value less than 10 mL/min/Kg) | < 100 nM | < 0.1 µM | < 0.1 µM | 
2 | Cc1ccc(-c2cc3c(=O)n([C@H](CO)C(C)C)cnc3c(-c3cc(F)cc(F)c3)n2)cc1 [Compound 37] |  | < 100 nM | ≥ 1 µM | < 0.1 µM | 
3 | O=c1c2cc(-c3ccc(OC(F)(F)F)cc3)nc(-c3cccnc3)c2ncn1C[C@@H](O)C(F)(F)F [Compound 123, (R)-8-(pyridin-3-yl)-3-(3,3,3-trifluoro-2-hydroxypropyl)-6-(4-(trifluoromethoxy)phenyl)pyrido[3,4-d]pyrimidin-4(3H)-one] |  |  | ≥ 1 µM | < 0.1 µM | < 20 mL/min/kg
4 | O=c1c2cc(-c3ccc(C(F)(F)F)cn3)nc(-c3cccnc3)c2ncn1[C@@H]1COC[C@@H]1O [Compound 148, 3-((3R,4R)-4-hydroxytetrahydrofuran-3-yl)-8-(pyridin-3-yl)-6-(5-(trifluoromethyl)pyridin-2-yl)pyrido[3,4-d]pyrimidin-4(3H)-one] |  | < 100 nM | ≥ 1 µM | ≥ 1 µM | 
5 | CC(C)(O)Cn1cnc2c(-c3cccc(F)c3)nc(-c3ccc(Cl)cc3)cc2c1=O [Compound 38] |  | < 100 nM | < 0.1 µM | < 0.1 µM | 
6 | C[C@@H](CO)n1cnc2c(-c3cnn(C)c3)nc(-c3ccc(C(F)(F)F)cn3)cc2c1=O [Compound 150, (S)-3-(1-hydroxypropan-2-yl)-8-(1-methyl-1H-pyrazol-4-yl)-6-(5-(trifluoromethyl)pyridin-2-yl)pyrido[3,4-d]pyrimidin-4(3H)-one] |  | < 100 nM |  |  | < 20 mL/min/kg
7 | C[C@@H](CO)n1cnc2c(-c3cccnc3)nc(-c3ccc(Cl)cc3)cc2c1=O [Compound 24] |  | < 100 nM | ≥ 1 µM | ≥ 1 µM | 
8 | O=c1c2cc(-c3ccc(Cl)cc3)nc(-c3cccnc3)c2ncn1[C@@H]1CNC[C@H]1O [Compound 134, 6-(4-chlorophenyl)-3-((3R,4R)-4-hydroxypyrrolidin-3-yl)-8-(pyridin-3-yl)pyrido[3,4-d]pyrimidin-4(3H)-one] |  | < 100 nM |  |  | < 20 mL/min/kg
9 | O=c1c2cc(-c3ccc(Cl)cc3)nc(-c3cccnc3)c2ncn1[C@H]1COC[C@H]1O (stereo in doubt) [Compound 70] |  |  | ≥ 1 µM | ≥ 1 µM | < 20 mL/min/kg
10 | O=c1c2cc(-c3ccc(C(F)(F)F)nc3)nc(-c3cccnc3)c2ncn1[C@@H]1COC[C@@H]1O [Compound 129, 3-((3R,4R)-4-hydroxytetrahydrofuran-3-yl)-8-(pyridin-3-yl)-6-(6-(trifluoromethyl)pyridin-3-yl)pyrido[3,4-d]pyrimidin-4(3H)-one] |  | < 100 nM | ≥ 1 µM | ≥ 1 µM | 
